Measurements as given in publication PMC5862592, “CDK8/19 inhibition induces premature G1/S transition and ATR-dependent cell death in prostate cancer cells” (Oncotarget, 2018).
Like-named read-outs stand apart in the source and are kept apart here.

Experiments:
Assay in all cases: biochemical
Design in all cases: KINOMEscan active site-directed competition binding assay (DiscoveRx), 456 kinases, per cent of control at 300 nM
Conditions in all cases: read-out: Percent of Control (%)
STK16 = STK16 (Homo sapiens, UniProt O75716)
Summary of the method: (§1)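 Kinase panel (456 enzymes) profiled by competitive displacement at the active site; compounds run at 300 nmol/L.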

LATS1 = LATS1 (Homo sapiens, UniProt O95835)
Summary of the method: as §1

EPHB1 = EPHB1 (Homo sapiens, UniProt P54762)
Summary of the method: as §1

TXK = TXK (Homo sapiens, UniProt P42681)
Summary of the method: as §1

NDR2 = biological target: T1, NDR2 (Homo sapiens, UniProt Q9Y2H1)
T1 construct: gene STK38L
Summary of the method: as §1

MKNK2 = MKNK2 (Homo sapiens, UniProt Q9HBH9)
Summary of the method: as §1

HIPK2 = HIPK2 (Homo sapiens, UniProt Q9H2X6)
Summary of the method: as §1

NEK6 = NEK6 (Homo sapiens, UniProt Q9HC98)
Summary of the method: as §1

MKNK1 = MKNK1 (Homo sapiens, UniProt Q9BUB5)
Summary of the method: as §1

[1] = biological target: T2, ABL1(F317L)-phosphorylated (Homo sapiens, UniProt P00519, F317L)
T2 construct: phosphorylated
Summary of the method: as §1

MELK = MELK (Homo sapiens, UniProt Q14680)
Summary of the method: as §1

MAST1 = MAST1 (Homo sapiens, UniProt Q9Y2H9)
Summary of the method: as §1

GRK4 = GRK4 (Homo sapiens, UniProt P32298)
Summary of the method: as §1

ACVR1B = ACVR1B (Homo sapiens, UniProt P36896)
Summary of the method: as §1

KIT = KIT (Homo sapiens, UniProt P10721)
Summary of the method: as §1

ADCK3 = biological target: T3, ADCK3 (Homo sapiens, UniProt Q8NI60)
T3 construct: gene COQ8A
Summary of the method: as §1

LTK = LTK (Homo sapiens, UniProt P29376)
Summary of the method: as §1

DLK = biological target: T4, DLK (Homo sapiens, UniProt Q12852)
T4 construct: gene MAP3K12
Summary of the method: as §1

CLK4 = CLK4 (Homo sapiens, UniProt Q9HAZ1)
Summary of the method: as §1

[2] = biological target: T5, RSK3(Kin.Dom.2-C-terminal) (Homo sapiens, UniProt Q15349)
T5 construct: gene RPS6KA2; Kin.Dom.2-C-terminal
Summary of the method: as §1

TBK1 = TBK1 (Homo sapiens, UniProt Q9UHD2)
Summary of the method: as §1

SgK110 = biological target: T6, SgK110 (Homo sapiens, UniProt P0C264)
T6 construct: gene SBK3
Summary of the method: as §1

T3 sequence (Q8NI60 whole entry): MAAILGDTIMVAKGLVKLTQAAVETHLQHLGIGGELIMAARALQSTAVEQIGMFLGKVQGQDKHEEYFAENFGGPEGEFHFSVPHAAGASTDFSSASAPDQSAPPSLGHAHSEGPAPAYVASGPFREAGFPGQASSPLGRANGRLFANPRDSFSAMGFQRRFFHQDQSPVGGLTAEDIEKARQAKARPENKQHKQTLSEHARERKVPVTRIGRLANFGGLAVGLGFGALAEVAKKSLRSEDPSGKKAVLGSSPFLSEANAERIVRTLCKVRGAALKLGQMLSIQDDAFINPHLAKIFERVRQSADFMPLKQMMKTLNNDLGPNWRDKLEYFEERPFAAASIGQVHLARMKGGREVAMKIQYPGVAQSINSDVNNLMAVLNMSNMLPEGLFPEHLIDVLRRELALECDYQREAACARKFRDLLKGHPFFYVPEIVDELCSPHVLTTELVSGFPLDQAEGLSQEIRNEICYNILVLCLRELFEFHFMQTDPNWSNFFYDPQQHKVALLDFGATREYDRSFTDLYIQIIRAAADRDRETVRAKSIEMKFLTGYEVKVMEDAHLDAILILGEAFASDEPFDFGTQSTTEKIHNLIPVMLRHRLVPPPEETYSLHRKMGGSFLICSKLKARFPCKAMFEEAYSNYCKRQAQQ
HIPK2, sequence (Q9H2X6 whole entry): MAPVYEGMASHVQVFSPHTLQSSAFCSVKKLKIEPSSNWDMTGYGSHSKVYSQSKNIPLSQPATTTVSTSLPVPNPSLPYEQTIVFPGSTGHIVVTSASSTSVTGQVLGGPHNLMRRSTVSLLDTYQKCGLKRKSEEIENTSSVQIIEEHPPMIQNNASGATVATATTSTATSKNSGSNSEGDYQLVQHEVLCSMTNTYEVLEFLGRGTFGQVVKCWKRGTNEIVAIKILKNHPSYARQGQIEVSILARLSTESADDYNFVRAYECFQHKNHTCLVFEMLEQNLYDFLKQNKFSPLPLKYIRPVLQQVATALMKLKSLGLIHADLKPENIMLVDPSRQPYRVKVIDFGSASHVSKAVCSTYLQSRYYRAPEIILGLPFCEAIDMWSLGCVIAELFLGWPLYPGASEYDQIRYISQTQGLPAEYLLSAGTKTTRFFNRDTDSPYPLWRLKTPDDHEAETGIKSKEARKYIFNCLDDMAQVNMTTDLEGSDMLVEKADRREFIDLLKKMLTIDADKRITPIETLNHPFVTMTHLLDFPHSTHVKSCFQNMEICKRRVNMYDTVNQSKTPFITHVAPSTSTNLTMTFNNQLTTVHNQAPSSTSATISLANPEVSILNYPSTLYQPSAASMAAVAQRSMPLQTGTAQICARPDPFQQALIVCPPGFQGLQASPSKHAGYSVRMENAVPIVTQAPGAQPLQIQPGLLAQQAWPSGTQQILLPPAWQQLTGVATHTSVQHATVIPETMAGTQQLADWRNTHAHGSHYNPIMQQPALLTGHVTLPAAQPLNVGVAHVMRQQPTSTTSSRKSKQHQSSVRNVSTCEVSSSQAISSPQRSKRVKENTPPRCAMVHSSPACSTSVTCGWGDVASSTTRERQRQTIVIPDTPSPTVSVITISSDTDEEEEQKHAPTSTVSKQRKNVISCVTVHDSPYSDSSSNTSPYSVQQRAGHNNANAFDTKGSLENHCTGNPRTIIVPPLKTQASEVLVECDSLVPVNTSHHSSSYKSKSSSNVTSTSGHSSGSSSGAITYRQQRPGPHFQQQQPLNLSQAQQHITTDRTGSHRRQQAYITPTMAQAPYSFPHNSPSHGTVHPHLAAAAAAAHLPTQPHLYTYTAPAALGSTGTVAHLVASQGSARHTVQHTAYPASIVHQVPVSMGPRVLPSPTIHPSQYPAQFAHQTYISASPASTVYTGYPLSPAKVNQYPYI
KIT, sequence (P10721 whole entry): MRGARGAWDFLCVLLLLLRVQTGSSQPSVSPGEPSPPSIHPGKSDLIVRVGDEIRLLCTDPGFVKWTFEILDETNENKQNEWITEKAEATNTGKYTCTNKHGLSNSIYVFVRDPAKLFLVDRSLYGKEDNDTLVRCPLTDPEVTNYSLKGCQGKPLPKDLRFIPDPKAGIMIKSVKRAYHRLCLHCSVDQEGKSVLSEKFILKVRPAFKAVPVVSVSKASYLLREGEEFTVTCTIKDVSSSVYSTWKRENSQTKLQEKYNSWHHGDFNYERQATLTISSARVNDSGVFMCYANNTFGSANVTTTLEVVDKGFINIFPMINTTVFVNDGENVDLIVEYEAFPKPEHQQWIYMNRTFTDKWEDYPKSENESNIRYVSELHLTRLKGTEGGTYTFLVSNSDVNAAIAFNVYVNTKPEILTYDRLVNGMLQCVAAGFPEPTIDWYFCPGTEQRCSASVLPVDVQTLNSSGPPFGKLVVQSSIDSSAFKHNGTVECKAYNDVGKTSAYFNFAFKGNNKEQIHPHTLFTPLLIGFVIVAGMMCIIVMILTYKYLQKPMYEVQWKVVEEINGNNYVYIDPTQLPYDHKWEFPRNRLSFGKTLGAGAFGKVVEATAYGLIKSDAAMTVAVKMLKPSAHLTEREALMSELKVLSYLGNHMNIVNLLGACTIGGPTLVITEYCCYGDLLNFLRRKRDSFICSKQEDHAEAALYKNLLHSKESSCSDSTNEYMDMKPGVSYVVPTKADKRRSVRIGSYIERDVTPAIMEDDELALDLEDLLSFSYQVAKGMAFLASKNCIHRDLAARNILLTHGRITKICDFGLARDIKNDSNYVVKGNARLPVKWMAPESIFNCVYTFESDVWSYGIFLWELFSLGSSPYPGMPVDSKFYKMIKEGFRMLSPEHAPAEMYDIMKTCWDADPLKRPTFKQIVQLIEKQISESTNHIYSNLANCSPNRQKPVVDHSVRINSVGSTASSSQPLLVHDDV
T6 sequence (P0C264 whole entry): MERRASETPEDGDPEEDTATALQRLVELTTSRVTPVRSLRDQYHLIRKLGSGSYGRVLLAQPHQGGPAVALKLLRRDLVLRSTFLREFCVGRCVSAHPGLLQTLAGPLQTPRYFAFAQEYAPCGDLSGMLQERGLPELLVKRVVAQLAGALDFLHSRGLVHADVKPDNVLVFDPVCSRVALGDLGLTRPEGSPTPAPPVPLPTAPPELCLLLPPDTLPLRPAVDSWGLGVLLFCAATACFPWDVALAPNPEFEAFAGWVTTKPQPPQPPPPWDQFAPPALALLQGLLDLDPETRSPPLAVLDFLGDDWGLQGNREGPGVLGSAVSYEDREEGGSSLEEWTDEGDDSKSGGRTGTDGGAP
T2 sequence (P00519 whole entry F317L): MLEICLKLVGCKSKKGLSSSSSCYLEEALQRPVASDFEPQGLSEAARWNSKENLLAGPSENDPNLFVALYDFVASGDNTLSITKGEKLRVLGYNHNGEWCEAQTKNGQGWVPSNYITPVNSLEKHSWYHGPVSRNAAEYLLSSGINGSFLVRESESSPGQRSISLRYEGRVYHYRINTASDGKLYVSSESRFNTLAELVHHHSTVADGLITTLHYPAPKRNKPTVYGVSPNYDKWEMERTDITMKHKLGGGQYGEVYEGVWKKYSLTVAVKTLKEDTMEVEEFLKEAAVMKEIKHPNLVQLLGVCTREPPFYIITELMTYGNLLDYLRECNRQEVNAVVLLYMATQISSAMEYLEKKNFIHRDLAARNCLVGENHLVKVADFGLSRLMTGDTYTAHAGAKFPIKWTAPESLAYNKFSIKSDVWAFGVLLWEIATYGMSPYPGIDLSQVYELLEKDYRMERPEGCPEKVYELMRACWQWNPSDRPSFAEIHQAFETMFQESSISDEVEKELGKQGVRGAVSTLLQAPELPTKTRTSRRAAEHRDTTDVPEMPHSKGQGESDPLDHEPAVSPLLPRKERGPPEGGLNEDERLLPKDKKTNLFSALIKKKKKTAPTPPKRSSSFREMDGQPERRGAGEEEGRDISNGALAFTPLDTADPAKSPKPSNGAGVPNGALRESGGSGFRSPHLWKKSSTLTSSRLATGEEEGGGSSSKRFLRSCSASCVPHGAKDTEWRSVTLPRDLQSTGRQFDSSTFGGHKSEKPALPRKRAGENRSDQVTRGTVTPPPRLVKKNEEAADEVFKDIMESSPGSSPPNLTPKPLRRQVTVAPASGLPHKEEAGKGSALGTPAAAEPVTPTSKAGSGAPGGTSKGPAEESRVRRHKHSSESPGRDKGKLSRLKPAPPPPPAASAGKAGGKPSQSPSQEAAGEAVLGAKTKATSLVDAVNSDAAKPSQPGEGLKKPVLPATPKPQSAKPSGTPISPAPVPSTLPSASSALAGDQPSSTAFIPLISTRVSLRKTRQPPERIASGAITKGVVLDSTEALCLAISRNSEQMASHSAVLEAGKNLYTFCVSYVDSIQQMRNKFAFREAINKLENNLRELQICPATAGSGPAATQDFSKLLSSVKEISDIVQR
CLK4, sequence (Q9HAZ1 whole entry): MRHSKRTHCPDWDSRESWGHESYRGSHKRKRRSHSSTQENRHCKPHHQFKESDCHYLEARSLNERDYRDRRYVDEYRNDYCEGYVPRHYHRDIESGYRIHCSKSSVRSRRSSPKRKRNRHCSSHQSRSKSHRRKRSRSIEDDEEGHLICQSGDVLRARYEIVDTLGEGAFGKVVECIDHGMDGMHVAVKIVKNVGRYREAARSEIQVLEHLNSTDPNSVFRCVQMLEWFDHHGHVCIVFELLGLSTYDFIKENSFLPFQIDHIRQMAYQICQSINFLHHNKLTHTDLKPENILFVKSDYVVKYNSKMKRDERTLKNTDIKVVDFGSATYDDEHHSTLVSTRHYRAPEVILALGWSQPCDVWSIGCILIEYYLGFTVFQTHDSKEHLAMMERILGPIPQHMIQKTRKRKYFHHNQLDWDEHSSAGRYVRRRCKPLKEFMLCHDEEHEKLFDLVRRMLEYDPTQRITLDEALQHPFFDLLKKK

For Cc1ncccc1Oc1sc(C(N)=O)c2c1-c1c(cnn1C)CC2 [T-474, 1-methyl-8-((2-methylpyridin-3-yl)oxy)-4,5-dihydro-1H-thieno[3,4-g]indazole-6-carboxamide], the remaining binding at 0.3 µM (STK16) was 88%, the remaining binding at 0.3 µM (LATS1) was 67% and the remaining binding at 0.3 µM (EPHB1) was 82%. The remaining binding at 0.3 µM (TXK) was 66%, the remaining binding at 0.3 µM (NDR2) was 100% and the remaining binding at 0.3 µM (MKNK2) was 86%. For the same molecule, the remaining binding at 0.3 µM (HIPK2) was 42%, the remaining binding at 0.3 µM (NEK6) was 100% and the remaining binding at 0.3 µM (MKNK1) was 50%. The remaining binding at 0.3 µM [1] was 100%, the remaining binding at 0.3 µM (MELK) was 71% and the remaining binding at 0.3 µM (MAST1) was 100%. The remaining binding at 0.3 µM (GRK4) was 100%, the remaining binding at 0.3 µM (ACVR1B) was 77% and the remaining binding at 0.3 µM (KIT) was 100%. For the same molecule, the remaining binding at 0.3 µM (ADCK3) was 90%, the remaining binding at 0.3 µM (LTK) was 100% and the remaining binding at 0.3 µM (DLK) was 94%. It also gave a remaining binding at 0.3 µM (CLK4) of 50%, a remaining binding at 0.3 µM [2] of 100% and a remaining binding at 0.3 µM (TBK1) of 67%. For the same molecule, the remaining binding at 0.3 µM (SgK110) was 57%.

O=C(/C=C/c1cnccc1-c1ccc(F)cc1)Nc1ccc(CCc2nnco2)cc1 [T-418, (2E)-3-(4-(4-fluorophenyl)pyridin-3-yl)-N-(4-(2-(1,3,4-oxadiazol-2-yl)ethyl)phenyl)acrylamide] showed a remaining binding at 0.3 µM (STK16; sheet T-418) of 86%, a remaining binding at 0.3 µM (LATS1; sheet T-418) of 60% and a remaining binding at 0.3 µM (EPHB1; sheet T-418) of 86%. It also gave a remaining binding at 0.3 µM (TXK; sheet T-418) of 72%, a remaining binding at 0.3 µM (NDR2; sheet T-418) of 100% and a remaining binding at 0.3 µM (MKNK2; sheet T-418) of 97%. The remaining binding at 0.3 µM (HIPK2; sheet T-418) was 53%, the remaining binding at 0.3 µM (NEK6; sheet T-418) was 98% and the remaining binding at 0.3 µM (MKNK1; sheet T-418) was 44%. The remaining binding at 0.3 µM ([1]; sheet T-418) was 100%, the remaining binding at 0.3 µM (MELK; sheet T-418) was 100% and the remaining binding at 0.3 µM (MAST1; sheet T-418) was 100%. It also gave a remaining binding at 0.3 µM (GRK4; sheet T-418) of 100%, a remaining binding at 0.3 µM (ACVR1B; sheet T-418) of 77% and a remaining binding at 0.3 µM (KIT; sheet T-418) of 100%. It also gave a remaining binding at 0.3 µM (ADCK3; sheet T-418) of 100%, a remaining binding at 0.3 µM (LTK; sheet T-418) of 100% and a remaining binding at 0.3 µM (DLK; sheet T-418) of 91%. It also gave a remaining binding at 0.3 µM (CLK4; sheet T-418) of 100%, a remaining binding at 0.3 µM ([2]; sheet T-418) of 100% and a remaining binding at 0.3 µM (TBK1; sheet T-418) of 75%. For the same molecule, the remaining binding at 0.3 µM (SgK110; sheet T-418) was 73%.
